Measured values from EP4810065A1, “COMBINED USE OF ANTIBODY-DRUG CONJUGATE AND POLY(ADENOSINE D[…]) POLYMERASE INHIBITOR” (Jiangsu Hansoh Pharmaceutical Group Co., Ltd., priority 2023, dated 2025).

Assays:
[1] = test system: RL95-2 endometrial cancer cell mouse xenografts; experiment: RL95-2 human endometrial cancer subcutaneous xenograft model; type: in vivo, nude mice
Procedure: Drug A was prepared by dilution with normal saline, and drug B was prepared using 0.5% HPMC; Human endometrial cancer cells RL95-2 were cultured in vitro in a cell incubator at 37°C and 5% CO2. Routine digestion treatment and passaging were carried out twice a week using trypsin-EDTA. When the cell confluence was 80%-90% and the number of cells reached the requirement, the cells were collected, counted, and inoculated.
RL95-2 cells were resuspended in PBS, the density after resuspension was 100 × 10^6/mL, the resuspended cells were mixed with an equal volume of Matrigel, inoculated subcutaneously into the right dorsal side of each mouse, 0.1 mL was inoculated into each mouse (5 × 10^6 cells/animal), and when the average tumor volume grew to 100-150 mm^3, grouping was carried out (D1), and administration was started on the day of grouping. The mice were administered by gavage (p.o.) once daily; the mice were administered by tail vein injection (i.v.) as a single administration; the administration volume was 10 mL/kg; the vehicle group was given the same volume of "vehicle"; the specific administration doses and administration regimens are shown in Table 5-1. Tumor volume was measured, mouse body weight was weighed, and data were recorded.
(§1) The experimental indicator was to examine the effect of the drug on tumor growth, and the specific indicator was the tumor growth inhibition rate TGI (%).
The tumor diameter was measured twice a week with a vernier caliper, and the calculation formula for tumor volume (V) was:V = 1/2×a×b^2 where a, b respectively indicate length and width.
(§2) Calculation of TGI (%): When there was no tumor regression, TGI (%) = [1 - (average tumor volume of a certain treatment group at the end of administration - average tumor volume of that treatment group at grouping)/(average tumor volume of the vehicle control group at the end of treatment - average tumor volume of the vehicle control group at grouping)] × 100%. When there was tumor regression, TGI (%) = [1 - (average tumor volume of a certain treatment group at the end of administration - average tumor volume of that treatment group at grouping)/average tumor volume of that treatment group at grouping] × 100%.
(§3) At the end of the experiment, upon reaching the experimental endpoint, or when the average tumor volume reached 2000 mm^3, the animals were euthanized under CO2 anesthesia, and then dissected for tumor collection and photographing.
The experimental data were analyzed and plotted using GraphPad Prism 9.4. Based on the tumor volume data of each group at different time points, Dunnett's multiple comparisons test in Two-way ANOVA was used for statistical analysis to evaluate differences among groups. […] Table 5-1. Dosing regimen of drug A in combination with drug B in the RL95-2 model

[2] = test system: human ovarian cancer OV0243; experiment: OV0243 human ovarian cancer PDX subcutaneous xenograft model; type: in vivo, BALB/c nude mice; conditions: for TGI (%): D27, tumor regression formula
Procedure: • Drug A was prepared by dilution with normal saline, and drug B was prepared using 0.5% HPMC; • OV0243 (mild cachexia), human ovarian cancer tumor tissue, was provided by Crown Bioscience (Beijing) Inc. • BALB/c nude mice, female, body weight 16-22 g, were purchased from Jiangsu Jicui Yaokang Biotechnology Co., Ltd.
OV0243 human ovarian cancer tissue was uniformly cut into tumor pieces with a diameter of 2-3 mm and inoculated subcutaneously at the right front scapular region of BALB/c nude mice, and tumor growth was regularly observed. When the average tumor volume reached 100-150 mm^3, random grouping was performed based on the tumor size and mouse body weight in accordance with Table 4-1. The tumor diameter was measured twice a week with a vernier caliper, and the calculation formula for tumor volume (V) was:V = 1/2×a×b^2 where a, b respectively indicate length and width.
as §1, §2, §3
The experimental data were analyzed and plotted using GraphPad Prism 9.4. Based on the tumor volume data of each group at different time points, Dunnett's multiple comparisons test in Two-way ANOVA was used for statistical analysis to evaluate differences among groups.
The invivoSyn method was used to analyze the synergistic effect of the combination treatment. First, based on the exponential growth model, the tumor growth rate of each mouse (eGR, exponential growth rate) and the average tumor growth rate of each group (eGRg) were calculated. Then, the relative survival rate of the treatment group and the control group was calculated by using the conditional probability formula Pr(T|C)=ST/SC, wherein SA, SB, and SAB are respectively defined as the relative survival rates of single-drug group A, single-drug group B, and the combination administration group at time point t. SA = (exp(eGRA*t))/(exp(eGRC*t)) [formula] SB = (exp(eGRB*t))/(exp(eGRC*t)) [formula] SAB = (exp(eGRAB*t))/(exp(eGRC*t)) [formula]
Based on the highest single-drug effect model (HSA, Highest Single Agent), the expected survival rate E(SAB) of the combination administration group was calculated. For the HSA model, E(SAB) = min(SA, SB). CI (Combination Index) is defined as the ratio of the observed survival rate SAB of the combination administration group to E(SAB), while the synergistic effect score (SS, Synergy Score) is defined as the percentage difference between E(SAB) and SAB. When the CI value is less than 1 or the SS value is greater than 0, the combination is considered to have a synergistic effect. p values and confidence intervals were calculated using the stratified bootstrap method (Stratified bootstrap). Table 4-1. Dosing regimen of drug A in combination with drug B in the OV0243 model

[3] = D0 (at grouping), Drug B 1 mg/kg p.o. QD*28 times
[4] = D28, Drug B 1 mg/kg p.o. QD*28 times

## CCc1cc2ncc(CN3CC=C(c4ccc(C(=O)NC)nc4)CC3)cc2[nH]c1=O [Drug B, 1'-((7-ethyl-6-oxo-5,6-dihydro-1,5-naphthyridin-3-yl)methyl)-N-methyl-1',2',3',6'-tetrahydro-[3,4'-bipyridine]-6-carboxamide]
[1]; [3]
  Average tumor volume (mm^3) + SEM: 134+7 mm^3
[1]; [4]
  Average tumor volume (mm^3) + SEM: 1097+109 mm^3
  T/C (%): 95.50%
  TGI (%): 5.08%
[1]; RL95-2 tumor-bearing mice
  tolerability: could well tolerate
[1]; RL95-2 xenograft mouse model
  tumor growth inhibition: had no obvious inhibitory effect on tumor growth
[2]; D0 (at grouping), Drug B 0.1 mg/kg p.o. QD*28 times
  Average tumor volume (mm^3) ± SEM: 137±2 mm^3
[2]; [3]
  Average tumor volume (mm^3) ± SEM: 138±2 mm^3
[2]; Drug B 0.1 mg/kg p.o. QD*28 times
  TGI (%): 129.84%
[2]; Drug B 1 mg/kg p.o. QD*28 times
  TGI (%): 191.94%
[2]; Day 27, Drug B 0.1 mg/kg p.o. QD*28 times
  Average tumor volume (mm^3) ± SEM: 96±14 mm^3
[2]; Day 27, Drug B 1 mg/kg p.o. QD*28 times
  Average tumor volume (mm^3) ± SEM: 11±6 mm^3
[2]; Day 55, Drug B 0.1 mg/kg p.o. QD*28 times
  Average tumor volume (mm^3) ± SEM: 3±3 mm^3
[2]; Day 55, Drug B 1 mg/kg p.o. QD*28 times
  Average tumor volume (mm^3) ± SEM: 0±0 mm^3
[2]; Day 83 (day 56 after drug withdrawal), Drug B 0.1 mg/kg p.o. QD*28 times
  Average tumor volume (mm^3) ± SEM: 78±27 mm^3
[2]; Day 83 (day 56 after drug withdrawal), Drug B 1 mg/kg p.o. QD*28 times
  Average tumor volume (mm^3) ± SEM: 50±23 mm^3
[2]; OV0243 model, conclusion
  tumor growth inhibition, monotherapy: significantly inhibit the growth of xenograft tumors in nude mice
[2]; OV0243 tumor-bearing mice
  tolerability: could well tolerate
[2]; drug B 0.1 mg/kg, by day 51, euthanasia
  body weight decrease of 1 animal: greater than 20%
[2]; drug B 0.1 mg/kg, day 23
  body weight decrease of 1 animal: 17.39%
[2]; drug B 0.1 mg/kg, day 27
  animals with partial tumor regression: 5/6
  average body weight change rate: 2.18%
[2]; drug B 1 mg/kg, day 27
  animals with complete tumor regression: 3/6
  animals with partial tumor regression: 3/6
  average body weight change rate: 3.75%
